Calls of active or inactive are those of the source. No cut-off for these calls is given here.
Experiments:
[1] = Tmax in male Sprague-Dawley rat at 30 mg/kg, po qd treated for 13 weeks consecutively measured after recovery period on day 91 by UP/LC/MS/MS analysis; assay type: ADME, organism-based; conditions: in vivo, time 91 day
[2] = Metabolic stability in macaque liver microsomes assessed as drug elimination at 10 umol/L incubated for 5 mins in presence of NADPH by LC-MS/MS analysis; assay type: ADME, Microsome; conditions: macaca, 10 µM, dose 10 µmol/L
[3] = Apparent volume of distribution during terminal phase in Sprague-Dawley rat at 3 mg/kg, po measured for 24 hrs by UPLC/MS/MS analysis; assay type: ADME, organism-based; conditions: in vivo, read-out: Vz/F
Rattus norvegicus [4] = experiment: Effect on postural hypotension in Sprague-Dawley rat assessed as change in systolic blood pressure at 5 mg/kg, po treated for >30 mins followed by induction of postural hypotension measured 20 secs after postural change (reference value: 129 +/- 11 mmHg); assay type: functional; conditions: time > 30.33 min, 0.5055 h
[5] = Tmax in Sprague-Dawley rat at 9 mg/kg, po measured for 24 hrs by UPLC/MS/MS analysis; assay type: ADME, organism-based; conditions: in vivo
[6] = Plasma protein binding in Cynomolgus monkey at 1 uM incubated for 30 mins; assay type: ADME, cell-free, Macaca fascicularis; conditions: read-out: PPB (converted)
[7] = Plasma protein binding in Beagle dog at 0.1 uM incubated for 30 mins; assay type: ADME, cell-free, Canis lupus familiaris; conditions: read-out: PPB (converted)
Rattus norvegicus [8] = experiment: Effect on postural hypotension in Sprague-Dawley rat assessed as change in systolic blood pressure at 10 mg/kg, po treated for >30 mins followed by induction of postural hypotension measured 10 secs after postural change (reference value: 127 +/- 12 mmHg); assay type: functional; conditions: time > 30.17 min, 0.5028 h
[9] = Metabolic stability in macaque plasma assessed as enzymatic hydrolysis at 50 to 10000 ng/ml incubated upto 120 mins; assay type: ADME, cell-free; conditions: macaca, 2 h, dose 50-10000 ng/ml
[10] = Acute toxicity in Sprague-Dawley rat assessed as drug tolerance at 250 to 1000 mg/kg, po single administration measured for 14 days; assay type: organism-based; conditions: in vivo, 336 h, dose 250-1000 mg/kg, time 14 day
[11] = Cmax in male Sprague-Dawley rat at 30 mg/kg, po measured on day 1 by UP/LC/MS/MS analysis; assay type: ADME, organism-based; conditions: in vivo, time 1 day
Rattus norvegicus [12] = experiment: Effect on heart rate in 2K2C renovascular hypertensive Sprague-Dawley rat model at 10 mg/kg, po measured after 9 weeks; assay type: functional, organism-based
[13] = AUC (0 to t) in female Sprague-Dawley rat at 30 mg/kg, po qd treated for 13 weeks consecutively measured after recovery period on day 91 by UP/LC/MS/MS analysis; assay type: ADME, organism-based; conditions: in vivo, time 91 day
[14] = Plasma protein binding in Beagle dog at 1 uM incubated for 30 mins; assay type: ADME, cell-free, Canis lupus familiaris; conditions: read-out: PPB (converted)
[15] = Tmax in male Sprague-Dawley rat at 10 mg/kg, po measured on day 1 by UP/LC/MS/MS analysis; assay type: ADME, organism-based; conditions: in vivo, time 1 day
[16] = AUC (0 to t) in male Sprague-Dawley rat at 30 mg/kg, po measured on day 1 by UP/LC/MS/MS analysis; assay type: ADME, organism-based; conditions: in vivo, time 1 day
[17] = AUC (0 to t) in female Sprague-Dawley rat at 10 mg/kg, po qd treated for 13 weeks consecutively measured after recovery period on day 91 by UP/LC/MS/MS analysis; assay type: ADME, organism-based; conditions: in vivo, time 91 day
[18] = AUC (0 to t) in male Sprague-Dawley rat at 100 mg/kg, po measured on day 1 by UP/LC/MS/MS analysis; assay type: ADME, organism-based; conditions: in vivo, time 1 day
[19] = Plasma protein binding in human at 0.1 uM incubated for 30 mins; assay type: ADME, cell-free; conditions: read-out: PPB (converted)
[20] = Oral bioavailability in Sprague-Dawley rat at 9 mg/kg measured for 24 hrs by UPLC/MS/MS analysis; assay type: ADME, organism-based; conditions: in vivo
[21] = Metabolic stability in Beagle dog liver microsomes assessed as compound remaining at 10 umol/L incubated upto 120 mins in presence of NADPH by LC-MS/MS analysis; assay type: ADME, Canis lupus familiaris, Microsome; conditions: dose 10 µmol/L, read-out: Stability
[22] = Acute toxicity in Sprague-Dawley rat assessed as discernible drug-related alterations at 250 to 1000 mg/kg, po single administration measured for 14 days; assay type: organism-based; conditions: in vivo, 336 h, dose 250-1000 mg/kg, time 14 day
[23] = Plasma protein binding in Sprague-Dawley rat at 10 uM incubated for 30 mins; assay type: ADME, cell-free; conditions: read-out: PPB (converted)
Rattus norvegicus [24] = experiment: Effect on postural hypotension in Sprague-Dawley rat assessed as change in systolic blood pressure at 5 mg/kg, po treated for >30 mins followed by induction of postural hypotension measured 40 secs after postural change (reference value: 128 +/- 11 mmHg); assay type: functional; conditions: time > 30.67 min, 0.5112 h
[25] = Apparent oral clearance in Sprague-Dawley rat at 1 mg/kg, iv measured for 24 hrs by UPLC/MS/MS analysis; assay type: ADME, organism-based; conditions: in vivo
[26] = Tmax in female Sprague-Dawley rat at 100 mg/kg, po qd treated for 13 weeks consecutively measured after recovery period on day 91 by UP/LC/MS/MS analysis; assay type: ADME, organism-based; conditions: in vivo, time 91 day
[27] = Tmax in female Sprague-Dawley rat at 10 mg/kg, po measured on day 1 by UP/LC/MS/MS analysis; assay type: ADME, organism-based; conditions: in vivo, time 1 day
[28] = target: 5-hydroxytryptamine receptor 2A (Homo sapiens, UniProt P28223); experiment: Displacement of [3H]Ketanserin from recombinant human 5-HT2A receptor extracted from CHO cell membrane at 100 nM incubated for 60 mins by radioligand binding assay relative to control; assay type: cell membranes; conditions: filed as antagonist
Sequence of 5-hydroxytryptamine receptor 2A (P28223 whole entry): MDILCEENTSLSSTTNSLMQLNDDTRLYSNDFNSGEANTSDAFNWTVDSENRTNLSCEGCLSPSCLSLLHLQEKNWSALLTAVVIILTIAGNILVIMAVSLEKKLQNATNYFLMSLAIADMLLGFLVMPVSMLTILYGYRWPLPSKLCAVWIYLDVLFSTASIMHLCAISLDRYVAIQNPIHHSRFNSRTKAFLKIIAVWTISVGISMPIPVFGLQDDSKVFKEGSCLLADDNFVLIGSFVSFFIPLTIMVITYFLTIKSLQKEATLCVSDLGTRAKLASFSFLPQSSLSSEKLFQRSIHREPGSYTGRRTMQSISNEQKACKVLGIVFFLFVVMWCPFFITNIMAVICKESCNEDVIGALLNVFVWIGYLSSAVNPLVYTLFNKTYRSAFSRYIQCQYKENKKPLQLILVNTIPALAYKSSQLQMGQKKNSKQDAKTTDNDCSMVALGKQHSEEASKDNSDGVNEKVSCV

[29] = Cmax in female Sprague-Dawley rat at 100 mg/kg, po qd treated for 13 weeks consecutively measured after recovery period on day 91 by UP/LC/MS/MS analysis; assay type: ADME, organism-based; conditions: in vivo, time 91 day
[30] = Cmax in Sprague-Dawley rat at 1 mg/kg, po measured for 24 hrs by UPLC/MS/MS analysis; assay type: ADME, organism-based; conditions: in vivo
[31] = Toxicity in Sprague-Dawley rat assessed as body weight anomaly at 10 mg/kg, po qd treated for 13 weeks consecutively measured after 4 week recovery period; assay type: organism-based; conditions: in vivo, 2856 h, time 17 weeks
Rattus norvegicus [32] = experiment: Antihypertensive activity in 2K2C renovascular hypertensive Sprague-Dawley rat model assessed as decrease in diastolic blood pressure at 10 mg/kg, po measured after 9 weeks; assay type: functional, organism-based
Rattus norvegicus [33] = experiment: Effect on postural hypotension in Sprague-Dawley rat assessed as change in systolic blood pressure at 5 mg/kg, po treated for >30 mins followed by induction of postural hypotension measured 3 secs after postural change (reference value: 124 +/- 10 mmHg); assay type: functional; conditions: time > 30.05 min, 0.5008 h
[34] = Tmax in male Sprague-Dawley rat at 30 mg/kg, po measured on day 1 by UP/LC/MS/MS analysis; assay type: ADME, organism-based; conditions: in vivo, time 1 day
[35] = Acute toxicity in Sprague-Dawley rat with single oral administration measured for 14 days; conditions: in vivo, time 14 day
[36] = Plasma protein binding in Beagle dog at 10 uM incubated for 30 mins; assay type: ADME, cell-free, Canis lupus familiaris; conditions: read-out: PPB (converted)
Rattus norvegicus [37] = experiment: Effect on postural hypotension in Sprague-Dawley rat assessed as change in systolic blood pressure at 2.5 mg/kg, po treated for >30 mins followed by induction of postural hypotension measured 5 secs after postural change (reference value: 126 +/- 12 mmHg); assay type: functional; conditions: time > 30.08 min, 0.5013 h
[38] = Apparent oral clearance in Sprague-Dawley rat at 1 mg/kg, po measured for 24 hrs by UPLC/MS/MS analysis; assay type: ADME, organism-based; conditions: in vivo

Cl.c1ccc2c(c1)nnn2CCCCN1CCN(c2nsc3ccccc23)CC1
Tmax [1]: 1 h | Drug excretion [2]: Active | Vd/F [3]: 22.4 L | Activity (Rattus norvegicus [4]): 83 mmHg | Tmax [5]: 0.65 h | fraction unbound at 0.5 h, 1 µM [6]: 0.006 | fraction unbound at 0.5 h, 0.1 µM [7]: 0.012 | Activity (Rattus norvegicus [8]): 84 mmHg | Stability [9]: Stable | Activity [10]: Non-Toxic | Cmax [11]: 109 ng/mL | Activity (Rattus norvegicus [12]): Active | AUC(0-t) at 2184 h [13]: 1470 ng·h/mL | fraction unbound at 0.5 h, 1 µM [14]: 0.006 | Tmax [15]: 1 h | AUC(0-t) at 24 h [16]: 318 ng·h/mL | AUC(0-t) at 2184 h [17]: 439 ng·h/mL | AUC(0-t) at 24 h [18]: 1460 ng·h/mL | fraction unbound at 0.5 h, 0.1 µM [19]: 0.003 | bioavailability [20]: 15.3% | remaining at 2 h, 10 µM [21]: 6.04% | Activity [22]: Non-Toxic | fraction unbound at 0.5 h, 10 µM [23]: 0.017 | Activity (Rattus norvegicus [24]): 83 mmHg | CL/F [25]: 25 L/h | Tmax [26]: 2.5 h | Tmax [27]: 1.3 h | inhibition [28]: 99% | Cmax [29]: 745 ng/mL | Cmax [30]: 33.3 ng/mL | Activity [31]: Non-Toxic | Activity (Rattus norvegicus [32]): Active | Activity (Rattus norvegicus [33]): 80 mmHg | Tmax [34]: 1 h | MTD at 336 h [35]: > 1000 mg/kg | fraction unbound at 0.5 h, 10 µM [36]: 0.007 | Activity (Rattus norvegicus [37]): 89 mmHg | CL/F [38]: 388 mL/min
